Data reported in paper PMC4138103 (PLoS ONE, 2014).
Several values for one entry are separate records, joined by “and”; a condition that tells them apart may be missing. Equal entries are not always repeated. Where two headings read alike, the source gives them in different places.

What was measured:
[1] = test system: Sprague-Dawley rats; assay: Serum thyroid hormones (FT3, FT4, TSH); format: in vivo, Rattus norvegicus; conditions: for Emax: Rattus norvegicus; for TSH / fT3 / fT4: group mean
Method: Serum free triiodothyronine (FT3), free thyroxine (FT4) and thyroid stimulating hormone (TSH) were measured by Elecsys 2010 immunochemistry analyzer using Roche FT3, FT4 and TSH reagents (all from Roche Diagnostics GmbH, Mannheim, Germany). The test principle is electrochemiluminescence immunoassay (ECLIA).
Data were also analyzed using the BMD method, which is based on dose-response modeling of the full data set using a nested family of exponential and Hill models. The analyses were done on data of males and females combined, using sex as a covariate. […] In that case, different Critical Effect Doses (CEDs) and CEDs at the lowest bound of the confidence interval (CED-L) were generated for each sex. If no difference between sexes is detected, a CED and CED-Ls for the combined data is generated. However, this was also done if the curve fits are close, and separate analyses for males and females were then performed manually. CEDs and CED-Ls were calculated at the predefined Critical Effect Size (CES) of 5% (EFSA standard) or 10%.

[2] = molecular target: T1, human TTR (Homo sapiens, UniProt P02766); conditions: ref Hamers et al. 2011, cited from earlier work
T1 construct: purchased Sigma Aldrich

[3] = F, CES 5%, model E2, adipose tissue concentration based
[4] = F, CES 5%, model E2, adipose tissue concentration based, half min value added to zeros
[5] = F, CES 10%, model E2, adipose tissue concentration based
[6] = F, CES 10%, model E2, adipose tissue concentration based, half min value added to zeros
[7] = M, CES 5%, model E4, adipose tissue concentration based
[8] = M, CES 5%, model E4, adipose tissue concentration based, half min value added to zeros
[9] = M, CES 10%, model E4, adipose tissue concentration based
[10] = M, CES 10%, model E4, adipose tissue concentration based, half min value added to zeros
[11] = females, CES 5%, total dose based
[12] = females, CES 5%, total dose based, half min value added to zeros
[13] = females, CES 10%, total dose based
[14] = females, CES 10%, total dose based, half min value added to zeros
[15] = females, adipose tissue concentration based
[16] = females, total dose 10 mg/kg bw
[17] = females, total dose 30 mg/kg bw
[18] = females, total dose 100 mg/kg bw
[19] = females, total dose 300 mg/kg bw
[20] = females, total dose 1000 mg/kg bw
[21] = females, total dose 1700 mg/kg bw
[22] = males, CES 5%, total dose based
[23] = males, CES 5%, total dose based, half min value added to zeros
[24] = males, CES 10%, total dose based
[25] = males, CES 10%, total dose based, half min value added to zeros
[26] = males, adipose tissue concentration based
[27] = males, total dose 1000 mg/kg bw
[28] = males, total dose 1700 mg/kg bw

Clc1cc(Cl)c(-c2cc(Cl)c(Cl)c(Cl)c2Cl)cc1Cl [PCB 180, 2,2′,3′,4,4′,5,5′-heptachlorobiphenyl]
CED, Serum free T3 (S-fT3) [1, 3]: 2280 µg/g lipid | CED, Serum free T4 (S-fT4) [1, 3]: 821 µg/g lipid | CED-L, Serum free T3 (S-fT3) [1, 3]: 1496 µg/g lipid | CED-L, Serum free T4 (S-fT4) [1, 3]: 683 µg/g lipid | CED, Serum TSH [1, 4]: 206 µg/g lipid | CED-L, Serum TSH [1, 4]: 126 µg/g lipid | CED, Serum free T3 (S-fT3) [1, 5]: 4680 µg/g lipid | CED, Serum free T4 (S-fT4) [1, 5]: 1690 µg/g lipid | CED-L, Serum free T3 (S-fT3) [1, 5]: 3072 µg/g lipid | CED-L, Serum free T4 (S-fT4) [1, 5]: 1402 µg/g lipid | CED, Serum TSH [1, 6]: 402 µg/g lipid | CED-L, Serum TSH [1, 6]: 246 µg/g lipid | CED, Serum free T3 (S-fT3) [1, 7]: 428 µg/g lipid | CED, Serum free T4 (S-fT4) [1, 7]: 158 µg/g lipid | CED-L, Serum free T3 (S-fT3) [1, 7]: 196 µg/g lipid | CED-L, Serum free T4 (S-fT4) [1, 7]: 117 µg/g lipid | CED, Serum TSH [1, 8]: 0.29 µg/g lipid | CED-L, Serum TSH [1, 8]: 0.04 µg/g lipid | CED, Serum free T3 (S-fT3) [1, 9]: 976 µg/g lipid | CED, Serum free T4 (S-fT4) [1, 9]: 328 µg/g lipid | CED-L, Serum free T3 (S-fT3) [1, 9]: 449 µg/g lipid | CED-L, Serum free T4 (S-fT4) [1, 9]: 243 µg/g lipid | CED, Serum TSH [1, 10]: 0.58 µg/g lipid | CED-L, Serum TSH [1, 10]: 0.09 µg/g lipid | Emax ([1]; F, model E2, controls vs high dose according to the fitted model, read-out: Maximum response, Serum free T3 (S-fT3)): -22.5% | Emax ([1]; females, controls vs high dose, fitted model, read-out: Serum free T3 (S-fT3), Maximum response): -21.8% | Emax ([1]; males, controls vs high dose, fitted model, read-out: Serum free T3 (S-fT3), Maximum response): -26% | Emax ([1]; read-out: Maximum response, Serum free T4 (S-fT4), F, model E2, controls vs high dose according to the fitted model): -50.7% | Emax ([1]; read-out: Maximum response, Serum free T4 (S-fT4), M, model E4, controls vs high dose according to the fitted model): -67.2% | Emax ([1]; read-out: Serum free T4 (S-fT4), Maximum response, females, controls vs high dose, fitted model): -49.4% | Emax ([1]; read-out: Serum free T4 (S-fT4), Maximum response, males, controls vs high dose, fitted model): -66.7% | Emax ([1]; model E4, controls vs high dose according to the fitted model, read-out: Maximum response, Serum free T3 (S-fT3)): -25% | fT3, Dose response ([1]; females): D, T | fT4, Dose response ([1]; females): D, T | Serum free T3 (S-fT3), CED [1, 11]: 354 mg/kg bw | Serum free T3 (S-fT3), CED-L [1, 11]: 233 mg/kg bw | Serum free T4 (S-fT4), CED [1, 11]: 128 mg/kg bw | Serum free T4 (S-fT4), CED-L [1, 11]: 106.6 mg/kg bw | Serum TSH, CED [1, 12]: 32.5 mg/kg bw | Serum TSH, CED-L [1, 12]: 19.9 mg/kg bw | Serum free T3 (S-fT3), CED [1, 13]: 727 mg/kg bw | Serum free T3 (S-fT3), CED-L [1, 13]: 479 mg/kg bw | Serum free T4 (S-fT4), CED [1, 13]: 263 mg/kg bw | Serum free T4 (S-fT4), CED-L [1, 13]: 219 mg/kg bw | Serum TSH, CED [1, 14]: 63.5 mg/kg bw | Serum TSH, CED-L [1, 14]: 38.8 mg/kg bw | Serum free T3, CED [1, 15]: 2280 µg/g lipid | Serum free T4, CED [1, 15]: 821 µg/g lipid | TSH ([1]; females, total dose 3 mg/kg bw): 0.047 µIU/ml | fT3 ([1]; females, total dose 3 mg/kg bw): 5.72 pmol/L | fT4 ([1]; females, total dose 3 mg/kg bw): 22.2 pmol/L | TSH [1, 16]: 0.000136 µIU/ml | fT3 [1, 16]: 5.10 pmol/L | fT4 [1, 16]: 19.1 pmol/L | TSH [1, 17]: 0.00543 µIU/ml | fT3 [1, 17]: 6.17 pmol/L | fT4 [1, 17]: 23.4 pmol/L | TSH [1, 18]: 0.011 µIU/ml | fT3 [1, 18]: 6.20 pmol/L | fT4 [1, 18]: 22.4 pmol/L | TSH [1, 19]: 0.021 µIU/ml | fT3 [1, 19]: 5.68 pmol/L | fT4 [1, 19]: 18.0 pmol/L | TSH [1, 20]: 0.011 µIU/ml | fT3 [1, 20]: 5.16 pmol/L | fT4 [1, 20]: 15.3 pmol/L | TSH [1, 21]: 0.066 µIU/ml | fT3 [1, 21]: 4.70 pmol/L | fT4 [1, 21]: 11.1 pmol/L | Increased serum TSH, CED-L ([1]; males): 0.04 µg/g lipid | TSH, Dose response ([1]; males): D, T | fT3, Dose response ([1]; males): D, T | fT4, Dose response ([1]; males): D, T | Serum free T3 (S-fT3), CED [1, 22]: 290 mg/kg bw | Serum free T3 (S-fT3), CED-L [1, 22]: 218 mg/kg bw | Serum free T4 (S-fT4), CED [1, 22]: 38.1 mg/kg bw | Serum free T4 (S-fT4), CED-L [1, 22]: 26.8 mg/kg bw | Serum TSH, CED [1, 23]: 0.07 mg/kg bw and 0.0747 mg/kg bw | Serum TSH, CED-L [1, 23]: 0.0139 mg/kg bw | Serum free T3 (S-fT3), CED [1, 24]: 596 mg/kg bw | Serum free T3 (S-fT3), CED-L [1, 24]: 448 mg/kg bw | Serum free T4 (S-fT4), CED [1, 24]: 79.4 mg/kg bw | Serum free T4 (S-fT4), CED-L [1, 24]: 56.0 mg/kg bw | Serum TSH, CED [1, 25]: 0.149 mg/kg bw | Serum TSH, CED-L [1, 25]: 0.0278 mg/kg bw | Serum TSH, CED [1, 26]: 0.29 µg/g lipid | Serum free T3, CED [1, 26]: 428 µg/g lipid | Serum free T4, CED [1, 26]: 158 µg/g lipid | Serum thyroxine, CED-L [1, 26]: 117000 ng/g lipid | TSH ([1]; males, total dose 3 mg/kg bw): 0.021 µIU/ml | fT3 ([1]; males, total dose 3 mg/kg bw): 5.74 pmol/L | fT4 ([1]; males, total dose 3 mg/kg bw): 25.4 pmol/L | TSH ([1]; males, total dose 10 mg/kg bw): 0.057 µIU/ml | fT3 ([1]; males, total dose 10 mg/kg bw): 5.58 pmol/L | fT4 ([1]; males, total dose 10 mg/kg bw): 28.4 pmol/L | TSH ([1]; males, total dose 30 mg/kg bw): 0.059 µIU/ml | fT3 ([1]; males, total dose 30 mg/kg bw): 5.77 pmol/L | fT4 ([1]; males, total dose 30 mg/kg bw): 27.2 pmol/L | TSH ([1]; males, total dose 100 mg/kg bw): 0.089 µIU/ml | fT3 ([1]; males, total dose 100 mg/kg bw): 5.39 pmol/L | fT4 ([1]; males, total dose 100 mg/kg bw): 21.7 pmol/L | TSH ([1]; males, total dose 300 mg/kg bw): 0.075 µIU/ml | fT3 ([1]; males, total dose 300 mg/kg bw): 5.24 pmol/L | fT4 ([1]; males, total dose 300 mg/kg bw): 17.6 pmol/L | TSH [1, 27]: 0.100 µIU/ml | fT3 [1, 27]: 4.21 pmol/L | fT4 [1, 27]: 11.7 pmol/L | TSH [1, 28]: 0.137 µIU/ml | fT3 [1, 28]: 4.41 pmol/L | fT4 [1, 28]: 8.71 pmol/L | T4 displacement, Pilot experiment ([2]; @10000 nM): 27% T4 displacement @10000 nM | IC50 ([2]; TTR binding): > 15 µM
